Reference: patent publication US10501479B2, “Benzenesulfonyl-asymmetric ureas and medical uses thereof” (HELSINN HEALTHCARE SA, priority 2016, dated 2019)
Where “and” joins values, the source holds several entries; their conditions need not be identical. Equal values may be shown once. Where a name gives a salt, the structure may show the parent alone.

Legend:
[1] = target: T1, recombinant human ghrelin receptor (HEK293/GRLN) (Homo sapiens, UniProt Q92847); assay: Ghrelin inverse agonist potency (EC50) with IP-1 (IP-One HTRF) assay; type: cell-based; conditions: inverse agonist potency, IP-1 assay; read-out: EC50 (Activity)
T1 construct: expressed in transfected cells
Procedure: Evaluation of Ghrelin Inverse Agonist Potency (EC50) with IP-1 Assay:
HEK293 cells stably expressing recombinant human ghrelin receptor (HEK293/GRLN) were used in the IP-One HTRF assay. One day before the test, cells were seeded at a density of 1.5×10^4/well in a Matrigel® coated 384-well plate with 30 μL of complete Dulbecco's Modified Eagle's Medium and incubated at 37° C. in 5% CO2 for 18-22 hours. On the test day, the medium was removed by centrifugation at 600 rpm for 30 seconds, and 20 μL of stimulation buffer containing 1x tested compound was added with Bravo (Agilent technologies). The plate was then incubated at 37° C. 5% CO2 for 1 hour. After the incubation, 5 μL of IP1-d2 and 5 μL of Tb-Cryp were added to all wells using multidrop Combi(Thermo). After additional incubation at room temperature for 1 hour, the plates were read on Envision with 620 and 665 (Perkin Elmer).

[2] = target: T2, GHSR-1a (HEK293/GHSR1a cell line) (Homo sapiens, UniProt Q92847); assay: Ghrelin antagonist potency (IC50) with calcium FLIPR assay, ghrelin 10 nM; type: cell-based; conditions: ghrelin antagonist potency, read-out: IC50 (Activity)
T2 construct: expressed in transfected cells; host or cells: HEK293/GHSR1a cell line
In short: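 Fluorescence read-out of intracellular calcium over 2 min. Agonist EC50 came from compound added alone at t=20 sec. Antagonist IC50 came from the reduction of the response to 10 nM ghrelin co-added with compound at t=20 sec. Both were fitted from dose-response data.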

T1 sequence (Q92847 whole entry): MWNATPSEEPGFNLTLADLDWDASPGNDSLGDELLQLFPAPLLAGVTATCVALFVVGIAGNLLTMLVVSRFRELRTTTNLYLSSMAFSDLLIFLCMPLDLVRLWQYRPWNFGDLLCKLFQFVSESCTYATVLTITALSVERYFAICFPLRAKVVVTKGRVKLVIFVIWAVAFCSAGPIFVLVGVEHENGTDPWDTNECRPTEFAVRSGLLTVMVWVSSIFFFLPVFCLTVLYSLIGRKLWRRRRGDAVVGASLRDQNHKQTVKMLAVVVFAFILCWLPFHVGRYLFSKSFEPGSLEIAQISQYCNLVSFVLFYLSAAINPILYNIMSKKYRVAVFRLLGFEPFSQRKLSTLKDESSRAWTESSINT
T2 sequence (Q92847 whole entry): as above

SMILES | EC50 [1] | IC50 [2] [nM]
C[C@H](NC(=O)Nc1ccc(S(=O)(=O)Cc2ccc3c(c2)CCN(Cc2ccccc2)C3)cc1)c1cccc(Cl)c1Cl [H1072, (S)-1-(4-(((2-benzyl-1,2,3,4-tetrahydroisoquinolin-6-yl)methyl)sulfonyl)phenyl)-3-(1-(2,3-dichlorophenyl)ethyl)urea] | 21.9 nM | 123
C[C@H](NC(=O)Nc1ccc(S(=O)(=O)Nc2ccc(C(C)(C)N)cc2)cc1)c1cccc(Cl)c1Cl [H1074, (S)-N-(4-(2-aminopropan-2-yl)phenyl)-4-(3-(1-(2,3-dichlorophenyl)ethyl)ureido) benzenesulfonamide] | 657 nM | 3250
C[C@H](NC(=O)Nc1ccc(S(=O)(=O)Cc2cccc(CO)c2)cc1)c1cccc(Cl)c1Cl [H1088, (S)-1-(1-(2,3-dichlorophenyl)ethyl)-3-(4-((3-(hydroxymethyl)benzyl)sulfonyl)phenyl)urea] | 367 nM | 7970
COCc1ccc(CS(=O)(=O)c2ccc(NC(=O)N[C@@H](C)c3cccc(Cl)c3Cl)cc2)cc1 [H1093, (S)-1-(1-(2,3-dichlorophenyl)ethyl)-3-(4-((4-(methoxymethyl)benzyl)sulfonyl)phenyl)urea] | 327 nM | 2380
C[C@H](NC(=O)Nc1ccc(S(=O)(=O)Cc2ccc3c(c2)COCC3)cc1)c1cccc(Cl)c1Cl [H1097, (S)-1-(1-(2,3-dichlorophenyl)ethyl)-3-(4-((isochroman-7-ylmethyl)sulfonyl)phenyl)urea] | 363 nM | 1970
C[C@H](NC(=O)Nc1ccc(S(=O)(=O)Cc2ccc3c(c2)COC3)cc1)c1cccc(Cl)c1Cl [H1098, (S)-1-(1-(2,3-dichlorophenyl)ethyl)-3-(4-(((1,3-dihydroisobenzofuran-5-yl)methyl)sulfonyl)phenyl)urea] | 649 nM | 12100
C[C@H](NC(=O)Nc1ccc(S(=O)(=O)Cc2ccc(O)cc2)cc1)c1cccc(Cl)c1Cl [H1099, (S)-1-(1-(2,3-dichlorophenyl)ethyl)-3-(4-((4-hydroxybenzyl)sulfonyl)phenyl)urea] | 1140 nM | 8670
CC(c1ccc2c(c1)CCNC2)S(=O)(=O)c1ccc(NC(=O)N[C@@H](C)c2cccc(Cl)c2Cl)cc1 (stereo partly drawn) [H1102, 1-((S)-1-(2,3-dichlorophenyl)ethyl)-3-(4-((1-(1,2,3,4-tetrahydroisoquinolin-6-yl)ethyl)sulfonyl)phenyl)urea hydrochloride] | 58.3 nM and 21.6 nM | 73.9
CC(c1ccc2c(c1)CCNC2)S(=O)(=O)c1ccc(NC(=O)N[C@@H](C)c2cccc(Cl)c2Cl)cc1 (stereo partly drawn) [H1103, 1-((S)-1-(2,3-dichlorophenyl)ethyl)-3-(4-((1-(1,2,3,4-tetrahydroisoquinolin-6-yl)ethyl)sulfonyl)phenyl)urea hydrochloride] | 66 nM | 487
C[C@H](NC(=O)Nc1ccc(S(=O)(=O)Nc2ccc3[nH]ncc3c2)cc1)c1cccc(Cl)c1Cl [H1106, (S)-4-(3-(1-(2,3-dichlorophenyl)ethyl)ureido)-N-(1H-indazol-5-yl) benzenesulfonamide] | 862 nM | 1430
C[C@H](NC(=O)Nc1ccc(S(=O)(=O)Nc2ccc(-c3cnc[nH]3)cc2)cc1)c1cccc(Cl)c1Cl [H1109, (S)-N-(4-(1H-imidazol-5-yl)phenyl)-4-(3-(1-(2,3-dichlorophenyl)ethyl)ureido) benzenesulfonamide] | 136 nM | 427
C[C@H](NC(=O)Nc1ccc(S(=O)(=O)Nc2ccc(N)nn2)cc1)c1cccc(Cl)c1Cl [H1129, (S)-N-(6-aminopyridazin-3-yl)-4-(3-(1-(2,3-dichlorophenyl)ethyl)ureido) benzenesulfonamide] | 2460 nM | 3330
C[C@H](NC(=O)Nc1ccc(S(=O)(=O)Cc2cnc(N)nc2)cc1)c1cccc(Cl)c1Cl [H1130, (S)-1-(4-(((2-aminopyrimidin-5-yl)methyl)sulfonyl)phenyl)-3-(1-(2,3-dichlorophenyl)ethyl)urea] | 1280 nM | 3380
CC(NC(=O)Nc1ccc(S(=O)(=O)Cc2ccc(CO)cc2)cc1)c1cccc2ccccc12 (stereo not drawn) [H1132, 1-(4-((4-(hydroxymethyl)benzyl)sulfonyl)phenyl)-3-(1-(naphthalen-1-yl)ethyl)urea] | 219 nM | 574
CC(NC(=O)Nc1ccc(S(=O)(=O)Nc2ccc(CO)cc2)cc1)c1cccc2ccccc12 (stereo not drawn) [H1133, N-(4-(hydroxymethyl)phenyl)-4-(3-(1-(naphthalen-1-yl)ethyl)ureido) benzenesulfonamide] | 170 nM | 419
CC(NC(=O)Nc1ccc(S(=O)(=O)Nc2ccc(CO)cc2)cc1)c1ccccc1 (stereo not drawn) [H1141, N-(4-(hydroxymethyl)phenyl)-4-(3-(1-phenylethyl)ureido) benzenesulfonamide] | 562 nM | 2610
CC(NC(=O)Nc1ccc(S(=O)(=O)Nc2ccc3c(c2)CNC3)cc1)c1cccc2ccccc12 (stereo not drawn) [H1155, N-(isoindolin-5-yl)-4-(3-(1-(naphthalen-1-yl)ethyl)ureido) benzenesulfonamide] | 5.03 nM | 4.3

SMILES | EC50 [1] | IC50 [2] [nM]
CC(C)NC(=O)Nc1ccc(S(=O)(=O)Cc2ccc3c(c2)CNC3)cc1 [H1178, 1-(4-((isoindolin-5-ylmethyl)sulfonyl)phenyl)-3-isopropylurea] | 1020 nM | 4890
CCNC(=O)Nc1ccc(S(=O)(=O)Cc2ccc3c(c2)CNC3)cc1 [H1180, 1-ethyl-3-(4-((isoindolin-5-ylmethyl)sulfonyl)phenyl)urea] | 315 nM | 14700
C[C@H](NC(=O)Nc1ccc(S(=O)(=O)Cc2ccc(COS(=O)(=O)O)cc2)cc1)c1cccc(Cl)c1Cl [H1181, (S)-4-(((4-(3-(1-(2,3-dichlorophenyl)ethyl)ureido)phenyl)sulfonyl)methyl) benzyl hydrogen sulfate] | 957 nM | 3310
O=C(Nc1ccccc1)Nc1ccc(S(=O)(=O)Cc2ccc3c(c2)CNC3)cc1 [H1190, 1-(4-((isoindolin-5-ylmethyl)sulfonyl)phenyl)-3-phenylurea] | 317 nM | 264
COc1ccc(CNC(=O)Nc2ccc(S(=O)(=O)Cc3ccc4c(c3)CNC4)cc2)cc1 [H1203, 1-(4-((isoindolin-5-ylmethyl)sulfonyl)phenyl)-3-(4-methoxybenzyl)urea] | 161 nM | 447
CN(Cc1ccccc1)C(=O)Nc1ccc(S(=O)(=O)Cc2ccc3c(c2)CNC3)cc1 [H1204, 1-benzyl-3-(4-((isoindolin-5-ylmethyl)sulfonyl)phenyl)-1-methylurea] | 624 nM | 692
CC(C)(C)NC(=O)Nc1ccc(S(=O)(=O)Cc2ccc3c(c2)CNC3)cc1 [H1205, 1-(tert-butyl)-3-(4-((isoindolin-5-ylmethyl)sulfonyl)phenyl)urea] | 5340 nM | 9870
CC(c1ccccc1)N(C)C(=O)Nc1ccc(S(=O)(=O)Cc2ccc3c(c2)CNC3)cc1 (stereo not drawn) [H1206, 3-(4-((isoindolin-5-ylmethyl)sulfonyl)phenyl)-1-methyl-1-(1-phenylethyl)urea] | 252 nM | 262
COc1ccc(CNC(=O)Nc2ccc(S(=O)(=O)Cc3ccc4c(c3)CNC4)cc2)nc1 [H1212, 1-(4-((isoindolin-5-ylmethyl)sulfonyl)phenyl)-3-((5-methoxypyridin-2-yl)methyl)urea] | 1780 nM | 3100
O=C(NCc1ccsc1)Nc1ccc(S(=O)(=O)Cc2ccc3c(c2)CNC3)cc1 [H1217, 1-(4-((isoindolin-5-ylmethyl)sulfonyl)phenyl)-3-(thiophen-3-ylmethyl)urea] | 1150 nM | 1450
CN1Cc2ccc(CS(=O)(=O)c3ccc(NC(=O)NCC(C)(C)C)cc3)cc2C1 [H1228, 1-(4-(((2-methylisoindolin-5-yl)methyl)sulfonyl)phenyl)-3-neopentylurea] | 1260 nM | 766
CC(C)C(C)NC(=O)Nc1ccc(S(=O)(=O)Cc2ccc3c(c2)CN(C)C3)cc1 (stereo not drawn) [H1229, 1-(3-methylbutan-2-yl)-3-(4-(((2-methylisoindolin-5-yl)methyl)sulfonyl)phenyl)urea] | 369 nM | 291
CCN1Cc2ccc(C(C)(C)S(=O)(=O)c3ccc(NC(=O)NC(C)c4ccccc4)cc3)cc2C1 (stereo not drawn) [H1232, 1-(4-((2-(2-ethylisoindolin-5-yl)propan-2-yl)sulfonyl)phenyl)-3-(1-phenylethyl)urea] | 310 nM | > 30000
CC(NC(=O)Nc1ccc(S(=O)(=O)C(C)c2ccc3c(c2)CN(Cc2ccccc2)C3)cc1)c1ccccc1 (stereo not drawn) [H1233, 1-(4-((1-(2-benzylisoindolin-5-yl)ethyl)sulfonyl)phenyl)-3-(1-phenylethyl)urea] | 170 nM | 225
CC(C)CNC(=O)Nc1ccc(S(=O)(=O)Cc2ccc3c(c2)CN(C)C3)cc1 [H1236, 1-isobutyl-3-(4-(((2-methylisoindolin-5-yl)methyl)sulfonyl)phenyl)urea] | 507 nM | 1640
CC(NC(=O)Nc1ccc(S(=O)(=O)Cc2ccc3c(c2)CN(C)C3)cc1)C1CC1 (stereo not drawn) [H1244, 1-(1-cyclopropylethyl)-3-(4-(((2-methylisoindolin-5-yl)methyl)sulfonyl)phenyl)urea] | 356 nM | 1280
